The values below come from patent publication US7348152B2, “Rhamnose binding protein” (Solbec Pharmaceutical Limited, priority 2002, dated 2008).

Assay [1] relates to A2058 cells. Kind of assay: Staining of cells with fluorescein tagged rhamnose probe (FRITC). Type of assay: cell-based. The method, then:
A2058 cells were coated at low density in a microscope compatible chamber. The cells were washed with HBS^2+ then incubated with FRITC (top concentration of DMSO=2.5%) for 5-15 min at 37° C. The FRITC was removed, the cells washed twice with HBS^2+ and examined under a visible light microscope. The incubation was repeated with 0-100 μM fluorescein-amine, and for 25 and 6 μM FRITC using a 10^3× excess of unlabelled rhamnose.
A fluorescein tagged rhamnose probe (FRITC) was prepared as previously described and used to stain A2058 cells.
FRITC at concentrations from 3-25 μM was incubated with A2058 cells for 15 minutes at 37° C.

In assay [2] the test system is A2058 cells. Put plainly: Co-administration of BEC® and rhamnose, cell survival. Type of assay: cell-based. The settings on record: 5 mM rhamnose, 5000 cells, 5 minutes and 4 days. The method, then:
A2058 cells at two different cell densities were treated with BEC® +/−rhamnose and cell survival was monitored after 4 days. The treatments comprised: (i) BEC® only for 4 days (ii) BEC® only for 5 minutes (iii) BEC® and 5 mM rhamnose for 4 days and (iv) BEC® and 5 mM rhamnose for 5 minutes.

Assay [3] relates to RBP bearing cells. Put plainly: Cell adhesion between RBP bearing cells. Type of assay: cell-based. The settings on record: RBP binds ligand.
Assay [4] concerns rhamnose binding protein (RBP). Kind of assay: Dissociation constant of the receptor estimated from the cytotoxicity functions. The settings on record: read-out: dissociation constant of RBP when bound to the rhamnose moiety of solamargine. The method, then:
Given that the evaluation of the cytotoxicities for different cell lines needed to be conducted using different sized cell populations, it was considered prudent to determine the effect, if any, of cell number on the measured value of LD50. Five cell lines, HT-29, LS174-T, 5637, A431 and MCF-7 were evaluated at four different seeding cell densities. Hs578T and CCD 18Lu were evaluated at three seeding densities and Hs578Bst, both early and late passage cells, were evaluated at two seeding densities.
In order that the full range of cell densities be evaluated with at least one cell line, a 3-day version of the cytotoxicity was developed. The cell lines involved were recalibtrated for the 3-day format. Multiwell plates were seeded on day 1. Cells were treated with BEC® on day 2 and MTT was added twenty four hours later.
Comparing the two fitted functions, two distinct regions are discernable (FIG. 8). […] We estimate that the dissociation constant for this receptor is likely to be of the order of 1.5×10^−6 M.

With `C[C@H](O)[C@H](O)[C@@H](O)[C@@H](O)C=O` [rhamnose], in assay [1] (co-incubation with free rhamnose at 10 mM), the “inhibition of FRITC staining” value is “staining could be inhibited”. Besides, the “rhamnose competition with BEC® uptake (protective effect)” value in assay [2] is listed as “affects the amount of BEC® taken up by the cells”. In assay [3], the “cell adhesion of RBP bearing cells” value was “inhibited”.
With `C[C@@H]1CC[C@@]2(NC1)O[C@H]1C[C@H]3[C@@H]4CC=C5C[C@@H](O[C@@H]6O[C@H](CO)[C@@H](O[C@@H]7O[C@@H](C)[C@H](O)[C@@H](O)[C@H]7O)[C@H](O)[C@H]6O[C@@H]6O[C@@H](C)[C@H](O)[C@@H](O)[C@H]6O)CC[C@]5(C)[C@H]4CC[C@]3(C)[C@H]1[C@@H]2C` [solamargine], in assay [4], the Kd was around 1500 nM.
Fluorescein Rhamnose-ITC [FRITC]: in assay [1] (FRITC 3-25 μM, 15 minutes at 37° C.), the “fluorescent staining of cells” value is “found to fluoresce”.
